Measurements reported in ChEMBL document CHEMBL1201862, “PubChem BioAssay data set” (2004).
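Grown in 96-well plates, cells were treated for 48 hours with each compound at five concentrations. Insufficient inhibition: endpoint recorded as highest concentration tested. GI50 = concentration required for 50% inhibition of growth.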 Active and inactive are the calls of the source. No stated cut-off is given here; in the data, active = GI50 up to about 1.1 µM and inactive = higher.

Assays:
Assay in all cases: DTP human tumour cell line panel, 48 h
786-0 = test system: 786-0
A549 = test system: A549
HCT-15 = test system: HCT-15
HL-60 = test system: HL-60
HOP-62 = test system: HOP-62
HOP-92 = test system: HOP-92
IGROV-1 = test system: IGROV-1
MDA-MB-435 = test system: MDA-MB-435
MOLT-4 = test system: MOLT-4
Malme-3M = test system: Malme-3M
NCI/ADR-RES = test system: NCI/ADR-RES
OVCAR-3 = test system: OVCAR-3
OVCAR-5 = test system: OVCAR-5
RXF 393 = test system: RXF 393
SF-539 = test system: SF-539
SR = test system: SR
SW-620 = test system: SW-620
UO-31 = test system: UO-31
RPMI-8226 = test system: RPMI-8226

Measured: GI50

c1ccc2c3c(c(N4CCOCC4)nc2c1)CCCC3
inactive: 786-0 32.8 µM | A549 43.1 µM | HL-60 14.2 µM | HOP-62 92.5 µM | HOP-92 67.1 µM | IGROV-1 > 100 µM | MDA-MB-435 48.6 µM | MOLT-4 30 µM | Malme-3M 75.2 µM | NCI/ADR-RES 29.9 µM | OVCAR-3 36.6 µM | OVCAR-5 15.1 µM | RXF 393 19.8 µM | SF-539 20.8 µM | SR 46.8 µM | SW-620 43.8 µM | UO-31 41.2 µM
35.3 µM: HCT-15

C=C1CC(COc2ccc3c(C)c(Cl)c(=O)oc3c2)(c2ccccc2)OC1=O (stereo not given)
2.26 µM: HCT-15
active: HL-60 0.277 µM | MOLT-4 0.805 µM | RPMI-8226 0.442 µM | SW-620 0.69 µM
inactive: 786-0 1.51 µM | A549 11.9 µM | HOP-62 7.03 µM | HOP-92 1.47 µM | IGROV-1 1.94 µM | MDA-MB-435 2.45 µM | Malme-3M 1.67 µM | NCI/ADR-RES 2.97 µM | OVCAR-3 2.14 µM | OVCAR-5 12.4 µM | SF-539 3.38 µM | SR 1.3 µM | UO-31 3.33 µM

COC(=O)[C@@]1(C)CCC[C@]2(C(=O)O)C3Cc4occc4[C@H](C)[C@@H]3CCC21 (stereo not given in full)
> 10 µM: HCT-15
inactive: 786-0 73.1 µM | A549 38.5 µM | HL-60 41.1 µM | HOP-62 34 µM | HOP-92 29.4 µM | IGROV-1 44.6 µM | MDA-MB-435 80.5 µM | MOLT-4 29.2 µM | Malme-3M 34.5 µM | NCI/ADR-RES 25.6 µM | OVCAR-3 > 100 µM | OVCAR-5 > 100 µM | RXF 393 51.1 µM | SF-539 42.9 µM | SR 59.7 µM | SW-620 36 µM | UO-31 42.7 µM

CCOC(=O)c1ccc2c(c1)nc1n2C(c2c(F)cccc2F)SC1 (stereo not given)
23.3 µM: HCT-15
active: IGROV-1 0.951 µM
inactive: 786-0 23.4 µM | A549 23.6 µM | HL-60 24.4 µM | HOP-62 31.9 µM | HOP-92 40.6 µM | MDA-MB-435 30.6 µM | MOLT-4 26.8 µM | NCI/ADR-RES 18.8 µM | OVCAR-3 17.8 µM | OVCAR-5 59.6 µM | RPMI-8226 21.8 µM | RXF 393 51.6 µM | SF-539 21.4 µM | SR 25.6 µM | SW-620 54.6 µM | UO-31 29.2 µM

O=C1CNc2cc(N3CCOCC3)ccc2N1
> 100 µM: HCT-15
inactive: 786-0 > 100 µM | A549 > 100 µM | HL-60 > 100 µM | HOP-62 > 100 µM | HOP-92 > 100 µM | IGROV-1 > 100 µM | MDA-MB-435 > 100 µM | MOLT-4 > 100 µM | Malme-3M > 100 µM | NCI/ADR-RES > 100 µM | OVCAR-3 > 100 µM | OVCAR-5 > 100 µM | RPMI-8226 > 100 µM | RXF 393 > 100 µM | SR > 100 µM | SW-620 > 100 µM | UO-31 > 100 µM

COC(=O)c1cc2/c(=N/O)c3ccccc3sc2o1
inactive: 786-0 > 100 µM | A549 > 100 µM | HL-60 > 100 µM | HOP-62 > 100 µM | HOP-92 > 100 µM | IGROV-1 > 100 µM | MDA-MB-435 > 100 µM | MOLT-4 > 100 µM | Malme-3M > 100 µM | NCI/ADR-RES > 100 µM | OVCAR-3 > 100 µM | OVCAR-5 > 100 µM | RPMI-8226 > 100 µM | SF-539 > 100 µM | SR > 100 µM | SW-620 > 100 µM
> 100 µM: HCT-15

[N-]=[N+]=NC1(N=[N+]=[N-])C(=O)NN=C(c2ccccc2)C1=O (stereo not given)
inactive: 786-0 > 100 µM | A549 > 100 µM | HL-60 35.3 µM | HOP-62 > 100 µM | HOP-92 > 100 µM | IGROV-1 > 100 µM | MDA-MB-435 18.4 µM | MOLT-4 28.8 µM | Malme-3M 7.18 µM | NCI/ADR-RES > 100 µM | OVCAR-3 68.4 µM | RPMI-8226 41.3 µM | RXF 393 45.5 µM | SF-539 > 100 µM | SR 32.7 µM | SW-620 50.9 µM | UO-31 > 100 µM
> 100 µM: HCT-15

O=C(O[C@H]1[C@@H](O)[C@H](n2cnc3c(Cl)ncnc32)O[C@@H]1COC(c1ccccc1)(c1ccccc1)c1ccccc1)c1ccccc1
inactive: 786-0 14.9 µM | A549 56.1 µM | HL-60 9.91 µM | HOP-62 16.7 µM | HOP-92 15.8 µM | IGROV-1 15.9 µM | MDA-MB-435 26.8 µM | MOLT-4 3.04 µM | NCI/ADR-RES 34.8 µM | OVCAR-3 14.2 µM | OVCAR-5 > 100 µM | RPMI-8226 2.25 µM | RXF 393 16.6 µM | SF-539 20 µM | SR 2.67 µM | SW-620 54.5 µM | UO-31 1.27 µM
17.4 µM: HCT-15

CC(C)COP(C)(=O)C(N)(C(F)(F)F)C(F)(F)F (stereo not given)
inactive: 786-0 > 100 µM | A549 > 100 µM | HL-60 > 100 µM | HOP-62 > 100 µM | HOP-92 > 100 µM | IGROV-1 > 100 µM | MDA-MB-435 > 100 µM | MOLT-4 > 100 µM | Malme-3M > 100 µM | NCI/ADR-RES > 100 µM | OVCAR-3 > 100 µM | OVCAR-5 > 100 µM | RPMI-8226 > 100 µM | SF-539 > 100 µM | SR > 100 µM | SW-620 > 100 µM | UO-31 > 100 µM
> 100 µM: HCT-15

O=C1NCC2(CCNCC2)N1c1ccccc1
> 100 µM: HCT-15
inactive: 786-0 > 100 µM | A549 > 100 µM | HL-60 > 100 µM | HOP-62 > 100 µM | HOP-92 > 100 µM | IGROV-1 > 100 µM | MDA-MB-435 > 100 µM | MOLT-4 > 100 µM | Malme-3M > 100 µM | NCI/ADR-RES > 100 µM | OVCAR-3 > 100 µM | OVCAR-5 > 100 µM | RPMI-8226 > 100 µM | RXF 393 > 100 µM | SF-539 > 100 µM | SR > 100 µM | SW-620 > 100 µM

C/C(=N\N=C(/S)SCc1ccccc1)c1ccccn1
< 0.01 µM: HCT-15
inactive: RXF 393 1.28 µM
active: 786-0 < 0.01 µM | A549 0.17 µM | HL-60 < 0.01 µM | HOP-62 < 0.01 µM | HOP-92 < 0.0105 µM | IGROV-1 < 0.01 µM | MDA-MB-435 1.02 µM | MOLT-4 < 0.01 µM | Malme-3M 0.665 µM | NCI/ADR-RES < 0.01 µM | OVCAR-3 < 0.01 µM | RPMI-8226 < 0.01 µM | SF-539 0.303 µM | SR < 0.01 µM | SW-620 < 0.01 µM | UO-31 0.0183 µM

CCOC(=O)N1CCC(=C2c3ccc(Cl)cc3CCc3cccnc32)CC1 [LORATADINE]
inactive: 786-0 15.2 µM | A549 13.4 µM | HL-60 6.12 µM | HOP-62 15.2 µM | HOP-92 10 µM | IGROV-1 1.79 µM | MDA-MB-435 8.83 µM | MOLT-4 4.23 µM | Malme-3M 5.94 µM | NCI/ADR-RES 6.56 µM | OVCAR-3 7.78 µM | OVCAR-5 20.8 µM | RPMI-8226 3.83 µM | RXF 393 6.71 µM | SR 2.64 µM | SW-620 11.8 µM | UO-31 1.64 µM
7.55 µM: HCT-15
